Experimental data published in patent US20110196000A1, “Use of succinate dehydrogenase (SDH) inhibitors in the treatment of plant species from the family of the true grasses” (Bayer CropScience AG, priority 2010, published 2011).

Key:
Type in all cases: in vivo
wheat = test: Effect on the number of kernels/ear
wheat variety Ritmo [1] = test: Plot trial: chlorophyll content of leaves (pigment extraction method of Ziegler and Ehle)
[2] = test system: infection-free wheat plants of the cultivar Passat; test: Glasshouse trial: time of heading (ear emergence); design: time of heading of wheat (ears emerged): unit not given here
Protocol: (§1) In a glasshouse trial under controlled conditions, the effect of bixafen was investigated on the physiology, morphology and abiotic stress tolerance of infection-free wheat plants of the cultivar […] plants were grown in 10-litre containers over a period of 4 months. The substrate used was standard earth type ED 73 (Fröndenberg, Germany)+C-Horizont+Sand (4:2:1). The supply of nutrient to the plants took place by feeding with a 0.2% strength Flory 2 liquid fertilizer solution (from Euflor, Munich) once every two weeks. The plants were supplied with water as required. In each component of the trial, 10 repetitions were carried out.

[3] = test system: infection-free wheat plants of the cultivar Passat; test: Glasshouse trial: gas exchange activity of wheat ears; conditions: development stage BBCH 75
Protocol: as §1

wheat variety Ritmo [4] = test: Plot trial: yield components; conditions: sprays at BBCH 39 and 59
[5] = test system: infection-free wheat plants of the cultivar Passat; test: Glasshouse trial: green leaf area by visual scoring; conditions: for green leaf area of the flag leaf (F) / green leaf area of the second-from-top leaf (F-1) / green leaf area of the third-from-top leaf (F-2): glasshouse
Protocol: as §1, with “out. To prevent infestation with powdery mildew, Proquinazid (Talius® was applied once. The incidence of aphids and spider mites was avoided by treatments with Karate®, Bulldock® and Sumicidin®. The products under test were applied to the plants, in the form of sequential spray sequences (BBCH 39 and 59). The spray volume was 300 l of water per hectare. [table] The duration of the green coloration of the leaf area was captured on the basis of regular visual scoring of the fraction of the green leaf area.” for “out.”

[6] = test system: infection-free wheat plants of the cultivar Passat; test: Glasshouse trial: size of the flag leaf; conditions: for Length of the flag leaf / Width of the flag leaf / Area of the flag leaf / Area [rel.] of the flag leaf: at BBCH 83-85; for Area of the flag leaf: calculated using the formula A = 0.67 × length × width; for Area [rel.] of the flag leaf: untreated = 100
Protocol: In a glasshouse trial under controlled conditions, the effect of bixafen was investigated on the physiology, morphology and abiotic stress tolerance of infection-free wheat plants of the cultivar […] plants were grown in 10-litre containers over a period of 4 months. The substrate used was standard earth type ED 73 (Fröndenberg, Germany)+C-Horizont+Sand (4:2:1). The supply of nutrient to the plants took place by feeding with a 0.2% strength Flory 2 liquid fertilizer solution (from Euflor, Munich) once every two weeks. The plants were supplied with water as required. In each component of the trial, 10 repetitions were carried out. To prevent infestation with powdery mildew, Proquinazid (Talius® was applied once. The incidence of aphids and spider mites was avoided by treatments with Karate®, Bulldock® and Sumicidin®. The products under test were applied to the plants, in the form of sequential spray sequences (BBCH 39 and 59). The spray volume was 300 l of water per hectare. [table] Morphological parameters measured, additionally, were the length and width, i.e. the size of the flag leaf. This was greatest with the succinate dehydrogenase (SDH) inhibitor bixafen, in comparison to the other comparison fungicides.

[7] = test system: infection-free wheat plants of the cultivar Passat; test: Glasshouse trial: temperature of ears and leaves as measure of transpiration activity
Protocol: as §1

[8] = BBCH 75 (mature milk), leaf F-1
[9] = BBCH 75 (mature milk), leaf F-2
[10] = BBCH 85 (mature dough), leaf F-1
[11] = BBCH 85 (mature dough), leaf F-2
[12] = 68 days after second fungicide application (so in the source)
[13] = 75 days after second fungicide application (so in the source)
[14] = 82 days after second fungicide application (so in the source)
[15] = 89 days after second fungicide application (so in the source)
[16] = 96 days after second fungicide application (so in the source)
[17] = 103 days after second fungicide application (so in the source)
[18] = 110 days after second fungicide application (so in the source)
[19] = 117 days after second fungicide application (so in the source)
[20] = BBCH 90, lear (so in the source)
[21] = glasshouse trial, statement in words

OC(Cc1ccccc1Cl)(Cn1nc[nH]c1=S)C1(Cl)CC1 (stereo not drawn) [Prothioconazole]
Kernels/ear (wheat; 2nd trial, applied at BBCH 39 (prothioconazole 200 g a.i.; bixafen + prothioconazole 75 + 150 g a.i./ha)): 30.1
Chlorophyll content (wheat variety Ritmo [1]; BBCH 75 (mature milk), leaf F): 1740 µg/g
Chlorophyll content (wheat variety Ritmo [1]; [8]): 1637 µg/g
Chlorophyll content (wheat variety Ritmo [1]; [9]): 1207 µg/g
Chlorophyll content (wheat variety Ritmo [1]; BBCH 85 (mature dough), leaf F): 211 µg/g
Chlorophyll content (wheat variety Ritmo [1]; [10]): 163 µg/g
Chlorophyll content (wheat variety Ritmo [1]; [11]): 116 µg/g
time of heading of wheat (ears emerged) ([2]; 45 days after sowing): 6.9
time of heading of wheat (ears emerged) ([2]; 50 days after sowing): 29.0
time of heading of wheat (ears emerged) ([2]; 55 days after sowing): 42.6
time of heading of wheat (ears emerged) ([2]; 60 days after sowing): 48.2
time of heading of wheat (ears emerged) ([2]; 65 days after sowing): 64.1
time of heading of wheat (ears emerged) ([2]; 70 days after sowing): 77.9
time of heading of wheat (ears emerged) ([2]; 75 days after sowing): 87.1
time of heading of wheat (ears emerged) ([2]; 80 days after sowing): 94.9
time of heading of wheat (ears emerged) ([2]; 85 days after sowing): 100
Photosynthesis (gas exchange activity of wheat ears) [3]: −1.86 a CO2 per ear
Respiration (gas exchange activity of wheat ears) [3]: 2.12 ab CO2 per ear
Ears/m^2 (wheat variety Ritmo [4]): 397
Harvest Index (wheat variety Ritmo [4]): 59.3
Straw (wheat variety Ritmo [4]): 533 g m^−2
TKM (thousand-kernel mass) (wheat variety Ritmo [4]): 46.3 g
Yield (wheat variety Ritmo [4]): 8.1 t ha^−1
green leaf area of the flag leaf (F) [5, 12]: 100 % leaf area
green leaf area of the second-from-top leaf (F-1) [5, 12]: 100 % leaf area
green leaf area of the third-from-top leaf (F-2) [5, 12]: 100 % leaf area
green leaf area of the flag leaf (F) [5, 13]: 100 % leaf area
green leaf area of the second-from-top leaf (F-1) [5, 13]: 100 % leaf area
green leaf area of the third-from-top leaf (F-2) [5, 13]: 95 % leaf area
green leaf area of the flag leaf (F) [5, 14]: 100 % leaf area
green leaf area of the second-from-top leaf (F-1) [5, 14]: 95 % leaf area
green leaf area of the third-from-top leaf (F-2) [5, 14]: 83 % leaf area
green leaf area of the flag leaf (F) [5, 15]: 95 % leaf area
green leaf area of the second-from-top leaf (F-1) [5, 15]: 83 % leaf area
green leaf area of the third-from-top leaf (F-2) [5, 15]: 53 % leaf area
green leaf area of the flag leaf (F) [5, 16]: 85 % leaf area
green leaf area of the second-from-top leaf (F-1) [5, 16]: 57 % leaf area
green leaf area of the third-from-top leaf (F-2) [5, 16]: 30 % leaf area
green leaf area of the flag leaf (F) [5, 17]: 62 % leaf area
green leaf area of the second-from-top leaf (F-1) [5, 17]: 30 % leaf area
green leaf area of the third-from-top leaf (F-2) [5, 17]: 17 % leaf area
green leaf area of the flag leaf (F) [5, 18]: 38 % leaf area
green leaf area of the second-from-top leaf (F-1) [5, 18]: 19 % leaf area
green leaf area of the third-from-top leaf (F-2) [5, 18]: 8 % leaf area
green leaf area of the flag leaf (F) [5, 19]: 15 % leaf area
green leaf area of the second-from-top leaf (F-1) [5, 19]: 5 % leaf area
green leaf area of the third-from-top leaf (F-2) [5, 19]: 0 % leaf area
Length of the flag leaf [6]: 26.7 cm
Width of the flag leaf [6]: 1.3 cm
Area of the flag leaf [6]: 23.26 cm^2
Area [rel.] of the flag leaf [6]: 106 rel.
Temperature (as a measure of the transpiration activity) ([7]; BBCH 75, ear): 23.1 °C
Temperature (as a measure of the transpiration activity) ([7]; BBCH 75, leaf): 22.4 °C
Temperature (as a measure of the transpiration activity) ([7]; BBCH 80, ear): 19.5 °C
Temperature (as a measure of the transpiration activity) ([7]; BBCH 80, leaf): 16.6 °C
Temperature (as a measure of the transpiration activity) ([7]; BBCH 85, ear): 24.8 °C
Temperature (as a measure of the transpiration activity) ([7]; BBCH 85, leaf): 23.7 °C
Temperature (as a measure of the transpiration activity) ([7]; BBCH 90, ear): 24.2 °C
Temperature (as a measure of the transpiration activity) [7, 20]: 23.1 °C

Cn1cc(C(=O)Nc2ccc(F)cc2-c2ccc(Cl)c(Cl)c2)c(C(F)F)n1 [Bixafen, N-(3′,4′-dichloro-5-fluoro-1,1′-biphenyl-2-yl)-3-(difluoromethyl)-1-methyl-1H-pyrazole-4-carboxamide]
Kernels/ear (wheat; 1st. trial, applied at BBCH 33 + 59, twice 125 g a.i.): 41.7
Kernels/ear (wheat; 1st. trial, applied at BBCH 39 (bixafen 125 g a.i.; bixafen + prothioconazole 75 + 150 g a.i.)): 42.6
Chlorophyll content (wheat variety Ritmo [1]; BBCH 75 (mature milk), leaf F): 1763 µg/g
Chlorophyll content (wheat variety Ritmo [1]; [8]): 1693 µg/g
Chlorophyll content (wheat variety Ritmo [1]; [9]): 1243 µg/g
Chlorophyll content (wheat variety Ritmo [1]; BBCH 85 (mature dough), leaf F): 738 µg/g
Chlorophyll content (wheat variety Ritmo [1]; [10]): 631 µg/g
Chlorophyll content (wheat variety Ritmo [1]; [11]): 404 µg/g
chlorophyll content and breakdown of chlorophyll (wheat variety Ritmo [1]; alone or in combination with other active fungicidal ingredients, statement in words): the chlorophyll content overall is higher and the breakdown of chlorophyll is slower
time of heading of wheat (ears emerged) ([2]; 45 days after sowing): 1.8
time of heading of wheat (ears emerged) ([2]; 50 days after sowing): 15.5
time of heading of wheat (ears emerged) ([2]; 55 days after sowing): 42.2
time of heading of wheat (ears emerged) ([2]; 60 days after sowing): 57.0
time of heading of wheat (ears emerged) ([2]; 65 days after sowing): 78.0
time of heading of wheat (ears emerged) ([2]; 70 days after sowing): 88.7
time of heading of wheat (ears emerged) ([2]; 75 days after sowing): 93.5
time of heading of wheat (ears emerged) ([2]; 80 days after sowing): 96.7
time of heading of wheat (ears emerged) ([2]; 85 days after sowing): 98.5
uniformity of heading (ear emergence) [2, 21]: the heading is more uniform
Photosynthesis (gas exchange activity of wheat ears) [3]: -5.94 CO2 per ear
Respiration (gas exchange activity of wheat ears) [3]: 6.12 CO2 per ear
Ears/m^2 (wheat variety Ritmo [4]): 417
Harvest Index (wheat variety Ritmo [4]): 58.5
Straw (wheat variety Ritmo [4]): 590 g m^−2
TKM (thousand-kernel mass) (wheat variety Ritmo [4]): 47.7 g
Yield (wheat variety Ritmo [4]): 8.5 t ha^−1
green leaf area of the flag leaf (F) [5, 12]: 100 % leaf area
green leaf area of the second-from-top leaf (F-1) [5, 12]: 100 % leaf area
green leaf area of the third-from-top leaf (F-2) [5, 12]: 100 % leaf area
green leaf area of the flag leaf (F) [5, 13]: 100 % leaf area
green leaf area of the second-from-top leaf (F-1) [5, 13]: 100 % leaf area
green leaf area of the third-from-top leaf (F-2) [5, 13]: 95 % leaf area
green leaf area of the flag leaf (F) [5, 14]: 100 % leaf area
green leaf area of the second-from-top leaf (F-1) [5, 14]: 95 % leaf area
green leaf area of the third-from-top leaf (F-2) [5, 14]: 80 % leaf area
green leaf area of the flag leaf (F) [5, 15]: 95 % leaf area
green leaf area of the second-from-top leaf (F-1) [5, 15]: 85 % leaf area
green leaf area of the third-from-top leaf (F-2) [5, 15]: 52 % leaf area
green leaf area of the flag leaf (F) [5, 16]: 88 % leaf area
green leaf area of the second-from-top leaf (F-1) [5, 16]: 57 % leaf area
green leaf area of the third-from-top leaf (F-2) [5, 16]: 29 % leaf area
green leaf area of the flag leaf (F) [5, 17]: 65 % leaf area
green leaf area of the second-from-top leaf (F-1) [5, 17]: 33 % leaf area
green leaf area of the third-from-top leaf (F-2) [5, 17]: 15 % leaf area
green leaf area of the flag leaf (F) [5, 18]: 38 % leaf area
green leaf area of the second-from-top leaf (F-1) [5, 18]: 20 % leaf area
green leaf area of the third-from-top leaf (F-2) [5, 18]: 6 % leaf area
green leaf area of the flag leaf (F) [5, 19]: 15 % leaf area
green leaf area of the second-from-top leaf (F-1) [5, 19]: 5 % leaf area
green leaf area of the third-from-top leaf (F-2) [5, 19]: 0 % leaf area
effect on the duration of the green leaf area of the wheat plant [5, 21]: pronounced effect
Length of the flag leaf [6]: 28.1 cm
Width of the flag leaf [6]: 1.7 cm
Area of the flag leaf [6]: 32.01 cm^2
Area [rel.] of the flag leaf [6]: 146 rel.
size (length and width) of the flag leaf compared with the other comparison fungicides [6, 21]: greatest
Temperature (as a measure of the transpiration activity) ([7]; BBCH 75, ear): 22.3 °C
Temperature (as a measure of the transpiration activity) ([7]; BBCH 75, leaf): 22.1 °C
Temperature (as a measure of the transpiration activity) ([7]; BBCH 80, ear): 18.2 °C
Temperature (as a measure of the transpiration activity) ([7]; BBCH 80, leaf): 16.4 °C
Temperature (as a measure of the transpiration activity) ([7]; BBCH 85, ear): 24.5 °C
Temperature (as a measure of the transpiration activity) ([7]; BBCH 85, leaf): 23.3 °C
Temperature (as a measure of the transpiration activity) ([7]; BBCH 90, ear): 24.1 °C
Temperature (as a measure of the transpiration activity) [7, 20]: 22.3 °C
